{
  "source": "patent US10544150B2",
  "about": "“NK-3 receptor selective antagonist compounds, pharmaceutical composition and methods for use in NK-3 receptors mediated disorders” (Ogeda SA, priority 2010, dated 2020)",
  "data": [
    {"target": "human NK-3 receptor (Homo sapiens (Human), UniProt P29371)", "sequence (P29371 whole entry)": "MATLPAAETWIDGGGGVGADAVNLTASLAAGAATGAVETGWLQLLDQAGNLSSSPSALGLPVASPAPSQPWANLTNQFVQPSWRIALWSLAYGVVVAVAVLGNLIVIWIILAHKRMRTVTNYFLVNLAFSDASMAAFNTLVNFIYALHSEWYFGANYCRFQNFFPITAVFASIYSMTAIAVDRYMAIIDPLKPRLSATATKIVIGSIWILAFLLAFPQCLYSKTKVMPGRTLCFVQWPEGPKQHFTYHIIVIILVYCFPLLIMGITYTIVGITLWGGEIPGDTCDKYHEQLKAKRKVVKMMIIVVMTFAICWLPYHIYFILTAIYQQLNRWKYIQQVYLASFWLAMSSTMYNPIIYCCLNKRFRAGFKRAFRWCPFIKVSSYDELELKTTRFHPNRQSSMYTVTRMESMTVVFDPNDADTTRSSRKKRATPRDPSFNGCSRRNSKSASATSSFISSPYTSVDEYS", "assay": "3H-SB222200 binding competition assay with human NK-3 receptor", "settings": "3H-SB222200 displacement, CHO cell membranes expressing human NK3 receptor; read-out: Ki range", "protocol": "The affinity of compounds of the invention for the tachykinin receptors was determined by measuring the ability of the compounds of the invention to displace a radiolabeled ligand from its specifics binding site.\n^3H-SB222200 Binding Competition Assay with Human NK-3 Receptor\nThe ability of the compounds of the invention to inhibit the binding of the NK-3 receptor selective antagonist SB222200 was assessed by an in vitro radioligand binding assay. Membranes were prepared from Chinese hamster ovary recombinant cells which express the human NK3 receptor. The membranes were incubated with 5 nM ^3H-SB222200_(ARC) in a HEPES 25 mM/NaCl 0.1M/CaCl2 1 mM/MgCl2 5 Mm/BSA 0.5%/Saponin 10 μg/ml buffer at pH 7.4 and various concentrations of the compounds of the invention. The amount of tritiated SB222200 bound to the receptor was determined after filtration by the quantification of membrane associated radioactivity using the TopCount-NXT reader (Packard). […] In Table 3 biological results obtained using the ^3H-SB222200 binding competition assay with compounds of the invention are set out in tabulated form. In this table the calculated Ki is given. The Ki value obtained (in accordance with the protocol set forth above) is represented as follows: “+++” means Ki<500 nM; “++” means 500 nM≤Ki≤1 μM; “+” means 1 μM<Ki≤5 μM; “#” means Ki>5 μM.", "units": {"Ki": "nM"}, "values": [
      {"smiles": "O=C(c1ccc(-c2ccccc2)cn1)N1CCn2c(nnc2-c2ccc3ccccc3n2)C1", "note": "[Compound 90, (5-phenylpyridin-2-yl)(3-(quinolin-2-yl)-5,6-dihydro-[1,2,4]triazolo[4,3-a]pyrazin-7(8H)-yl)methanone]", "Ki": "< 500"},
      {"smiles": "C[C@@H]1c2nnc(-c3csc(-c4ccccc4)n3)n2CCN1C(=O)c1ccc(-c2cccs2)cc1", "note": "[Compound 135, (R)-(8-methyl-3-(2-phenylthiazol-4-yl)-5,6-dihydro-[1,2,4]triazolo[4,3-a]pyrazin-7(8H)-yl)(4-(thiophen-2-yl)phenyl)methanone]", "Ki": "< 500"},
      {"smiles": "COc1ccc(-c2nc(-c3nnc4n3CCN(C(=O)c3ccc(F)cc3)C4)cs2)cc1OC", "note": "[Compound 40, (3-(2-(3,4-dimethoxyphenyl)thiazol-4-yl)-5,6-dihydro-[1,2,4]triazolo[4,3-a]pyrazin-7(8H)-yl)(4-fluorophenyl)methanone]", "Ki": "< 500"},
      {"smiles": "O=C(c1ccc(-c2cccs2)cc1)N1CCn2c(nnc2-c2ccccn2)C1", "note": "[Compound 21, (3-(pyridin-2-yl)-5,6-dihydro-[1,2,4]triazolo[4,3-a]pyrazin-7(8H)-yl)(4-(thiophen-2-yl)phenyl)methanone]", "Ki": "< 500"},
      {"smiles": "C[C@H]1c2nnc(-c3csc(-c4ccc(F)cc4)n3)n2CCN1C(=O)c1ccc(F)cc1", "note": "[Compound 164, (S)-(4-fluorophenyl)(3-(2-(4-fluorophenyl)thiazol-4-yl)-8-methyl-5,6-dihydro-[1,2,4]triazolo[4,3-a]pyrazin-7(8H)-yl)methanone]", "Ki": "< 500"},
      {"smiles": "Cc1nc(-c2ccccc2)sc1-c1nnc2n1CCN(C(=O)c1ccc(F)cc1)C2C", "note": "(stereo not drawn) [Compound 75, (4-fluorophenyl)(8-methyl-3-(4-methyl-2-phenylthiazol-5-yl)-5,6-dihydro-[1,2,4]triazolo[4,3-a]pyrazin-7(8H)-yl)methanone]", "Ki": "500 to 1000"},
      {"smiles": "Cc1cccc(-c2nnc3n2CCN(C(=O)c2ccc(F)cc2)C3C)n1", "note": "(stereo not drawn) [Compound 278, (4-fluorophenyl)(8-methyl-3-(6-methylpyridin-2-yl)-5,6-dihydro-[1,2,4]triazolo[4,3-a]pyrazin-7(8H)-yl)methanone]", "Ki": "< 500"},
      {"smiles": "O=C(c1ccc(F)cc1)N1CCn2c(nnc2-c2cccc(N3CCOCC3)n2)C1", "note": "[Compound 38, (4-fluorophenyl)(3-(6-morpholinopyridin-2-yl)-5,6-dihydro-[1,2,4]triazolo[4,3-a]pyrazin-7(8H)-yl)methanone]", "Ki": "< 500"},
      {"smiles": "O=C(c1cc(-c2ccc(Cl)cc2Cl)n[nH]1)N1CCn2c(nnc2-c2ccccn2)C1", "note": "[Compound 13, (3-(2,4-dichlorophenyl)-1H-pyrazol-5-yl)(3-(pyridin-2-yl)-5,6-dihydro-[1,2,4]triazolo[4,3-a]pyrazin-7(8H)-yl)methanone]", "Ki": "1000 to 5000"},
      {"smiles": "O=C(c1ccc(-c2cccs2)cc1)N1CCn2c(nnc2-c2csc(-c3ccccc3O)n2)C1", "note": "[Compound 262, (3-(2-(2-hydroxyphenyl)thiazol-4-yl)-5,6-dihydro-[1,2,4]triazolo[4,3-a]pyrazin-7(8H)-yl)(4-(thiophen-2-yl)phenyl)methanone]", "Ki": "< 500"},
      {"smiles": "O=C(c1ccc(F)cc1)N1CCn2c(nnc2-c2csc(-c3cccc(F)c3)n2)C1", "note": "[Compound 206, (4-fluorophenyl)(3-(2-(3-fluorophenyl)thiazol-4-yl)-5,6-dihydro-[1,2,4]triazolo[4,3-a]pyrazin-7(8H)-yl)methanone]", "Ki": "1000 to 5000"},
      {"smiles": "O=C(c1cc(-c2ccc(Oc3ccccc3)cc2)n[nH]1)N1CCn2c(nnc2-c2ccccn2)C1", "note": "[Compound 18, (3-(4-phenoxyphenyl)-1H-pyrazol-5-yl)(3-(pyridin-2-yl)-5,6-dihydro-[1,2,4]triazolo[4,3-a]pyrazin-7(8H)-yl)methanone]", "Ki": "1000 to 5000"},
      {"smiles": "C[C@H]1c2nnc(-c3nc(-c4ccc(F)cc4)no3)n2CCN1C(=O)c1ccc(-c2cccs2)cc1", "note": "[Compound 168, (S)-(3-(3-(4-fluorophenyl)-1,2,4-oxadiazol-5-yl)-8-methyl-5,6-dihydro-[1,2,4]triazolo[4,3-a]pyrazin-7(8H)-yl)(4-(thiophen-2-yl)phenyl)methanone]", "Ki": "< 500"},
      {"smiles": "O=C(c1ccc(F)cc1)N1CCn2c(nnc2-c2csc(-c3ccc(N4CCOCC4)cc3)n2)C1", "note": "[Compound 240, (4-fluorophenyl)(3-(2-(4-morpholinophenyl)thiazol-4-yl)-5,6-dihydro-[1,2,4]triazolo[4,3-a]pyrazin-7(8H)-yl)methanone]", "Ki": "500 to 1000"},
      {"smiles": "COCCn1nc(-c2ccccc2)cc1-c1nnc2n1CCN(C(=O)c1ccc(-c3cccs3)cc1)C2", "note": "[Compound 254, (3-(1-(2-methoxyethyl)-3-phenyl-1H-pyrazol-5-yl)-5,6-dihydro-[1,2,4]triazolo[4,3-a]pyrazin-7(8H)-yl)(4-(thiophen-2-yl)phenyl)methanone]", "Ki": "< 500"},
      {"smiles": "O=C(c1ccc(F)cc1)N1CCn2c(nnc2-c2csc(-c3ccccc3O)n2)C1", "note": "[Compound 271, (4-fluorophenyl)(3-(2-(2-hydroxyphenyl)thiazol-4-yl)-5,6-dihydro-[1,2,4]triazolo[4,3-a]pyrazin-7(8H)-yl)methanone]", "Ki": "< 500"},
      {"smiles": "O=C(c1ccccc1)N1CCn2c(nnc2-c2ccccn2)C1", "note": "[Compound 231, phenyl(3-(pyridin-2-yl)-5,6-dihydro-[1,2,4]triazolo[4,3-a]pyrazin-7(8H)-yl)methanone]", "Ki": "1000 to 5000"},
      {"smiles": "O=C(c1ccc(F)cc1)N1CCn2c(nnc2-c2csc(-c3cccc(C(F)(F)F)c3)n2)C1", "note": "[Compound 28, (4-fluorophenyl)(3-(2-(3-(trifluoromethyl)phenyl)thiazol-4-yl)-5,6-dihydro-[1,2,4]triazolo[4,3-a]pyrazin-7(8H)-yl)methanone]", "Ki": "< 500"},
      {"smiles": "CC1CN(c2nc(-c3nnc4n3CCN(C(=O)c3ccc(-c5cccs5)cc3)C4)cs2)CC(C)O1", "note": "(stereo not drawn) [Compound 265, (3-(2-(2,6-dimethylmorpholino)thiazol-4-yl)-5,6-dihydro-[1,2,4]triazolo[4,3-a]pyrazin-7(8H)-yl)(4-(thiophen-2-yl)phenyl)methanone]", "Ki": "< 500"},
      {"smiles": "CC1c2nnc(-c3csc(-c4ccc(F)cc4)n3)n2CCN1C(=O)c1ccc(C#N)cc1", "note": "(stereo not drawn) [Compound 216, 4-(3-(2-(4-fluorophenyl)thiazol-4-yl)-8-methyl-5,6,7,8-tetrahydro-[1,2,4]triazolo[4,3-a]pyrazine-7-carbonyl)benzonitrile]", "Ki": "< 500"},
      {"smiles": "O=C(c1ccc(F)cc1)N1CCn2c(nnc2-c2cccc(N3CCCC3)n2)C1", "note": "[Compound 37, (4-fluorophenyl)(3-(6-(pyrrolidin-1-yl)pyridin-2-yl)-5,6-dihydro-[1,2,4]triazolo[4,3-a]pyrazin-7(8H)-yl)methanone]", "Ki": "< 500"},
      {"smiles": "C[C@@H]1c2nnc(-c3nc(-c4ccc(F)cc4)no3)n2CCN1C(=O)c1ccc(-c2cccs2)cc1", "note": "[Compound 169, (R)-(3-(3-(4-fluorophenyl)-1,2,4-oxadiazol-5-yl)-8-methyl-5,6-dihydro-[1,2,4]triazolo[4,3-a]pyrazin-7(8H)-yl)(4-(thiophen-2-yl)phenyl)methanone]", "Ki": "< 500"},
      {"smiles": "C[C@H]1c2nnc(-c3ccccn3)n2CCN1C(=O)c1ccc(F)cc1", "note": "[Compound 159, (S)-(4-fluorophenyl)(8-methyl-3-(pyridin-2-yl)-5,6-dihydro-[1,2,4]triazolo[4,3-a]pyrazin-7(8H)-yl)methanone]", "Ki": "> 5000"},
      {"smiles": "CC1c2nnc(-c3csc(-c4ccccc4)n3)n2CCN1C(=O)c1ccc(-c2ccsc2)cc1", "note": "(stereo not drawn) [Compound 64, (8-methyl-3-(2-phenylthiazol-4-yl)-5,6-dihydro-[1,2,4]triazolo[4,3-a]pyrazin-7(8H)-yl)(4-(thiophen-3-yl)phenyl)methanone]", "Ki": "< 500"}
    ]}
  ]
}
